Values of other authors in patent publication US20070027116A1, “Therapeutic phosphonate derivatives” (priority 2003, published 2007).

Details: after oral or intravenous administration; background statement

## COc1c(C)c2c(c(O)c1C/C=C(\C)CCC(=O)OCCN1CCOCC1)C(=O)OC2 [Mycophenolate mofetil]
  drug cleared by glucuronidation and excreted in the urine: over 90%
